Key:
[1] = target: T1, AaSiaP (TRAP N-acetylneuraminate substrate-binding protein SiaP) (Aggregatibacter actinomycetemcomitans, UniProt A0A5D0EK58); experiment: microscale thermophoresis; also crystal structure ([…] A), DSF, SAXS; parameters: gene ACT75_01630; mature chain without native signal peptide (replaced by pelB), residual N-terminal Met-Asp; strain 624, WP_005538762.1
[2] = target: T1, AaSiaP (TRAP N-acetylneuraminate substrate-binding protein SiaP); experiment: microscale thermophoresis; parameters: gene ACT75_01630; mature chain without native signal peptide (replaced by pelB), residual N-terminal Met-Asp; strain 624, WP_005538762.1
[3] = target: T1, AaSiaP (TRAP N-acetylneuraminate substrate-binding protein SiaP); parameters: gene ACT75_01630

T1 sequence (A0A5D0EK58 entry or part of it): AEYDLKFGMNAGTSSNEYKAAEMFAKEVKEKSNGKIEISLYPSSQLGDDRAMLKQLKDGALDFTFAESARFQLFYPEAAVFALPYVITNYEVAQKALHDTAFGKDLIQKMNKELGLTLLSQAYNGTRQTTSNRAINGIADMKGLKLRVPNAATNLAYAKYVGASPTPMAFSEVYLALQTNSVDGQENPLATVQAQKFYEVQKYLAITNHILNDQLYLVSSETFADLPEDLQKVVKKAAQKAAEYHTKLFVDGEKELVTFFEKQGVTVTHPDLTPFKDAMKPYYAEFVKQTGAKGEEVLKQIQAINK

CC(=O)N[C@H]1[C@H]([C@H](O)[C@H](O)CO)O[C@](O)(C(=O)O)C[C@@H]1O [Neu5Ac, N-acetylneuraminate]
Kd [1]: 430 nM

O=C(CO)N[C@H]1[C@H]([C@H](O)[C@H](O)CO)O[C@@](O)(C(=O)O)C[C@@H]1O [Neu5Gc, N-glycolylneuraminate]
Kd [2]: 4400 nM

CC(=O)O [acetate]
crystal structure (2.58 A, chains A and B); acetate from the crystallization cond [3]: Acetate makes favorable interactions with residues R127, R147, and N189 on domain II within the binding site of AaSiaP

From publication PMC11550005, “On the function of TRAP substrate-binding proteins: Conformational variation of the sialic acid binding protein SiaP” (The Journal of Biological Chemistry, 2024)
